Data taken from patent publication US20090056397A1, “NITROGEN CONTAINING FERTILIZER FOR PLANT GROWTH” (SweTree Technologies AB, priority 2000, published 2009).
Like-named read-outs stand apart in the source and are kept apart here.

What was measured:
spruce plants = experiment: Cultivation trials with spruce plants in peat using various nitrogen sources; assay type: in vivo; details: 59 days
From the text: 720 spruce seeds were sown in peat at the same time as and in parallel with the above described trials. The trials carried out on spruce seeds and on spruce plants stemming from the seed were identical to the earlier described trials. […] The standard deviation is also shown in this case.

pine plants = experiment: Cultivation trials with pine plants in peat using various nitrogen sources; assay type: in vivo; details: 59 days; for change in growth of the pine plants on charge increase from three to ten millimoles per litre: nitrogen 3 mM to 10 mM; for growth of the pine plants (mean dry weight), ranking of the nitrogen sources: greenhouse 20° C., nitrogen 1, 3 and 10 mM, FIG. 1
Protocol: The cultivation trials presented below were carried out over a time period of 59 days in a greenhouse that was kept at a constant temperature of 20° C. Lighting was kept at 150 micromole light per square meter (m^2) and second (s). The lamps used to this end were Philips Powertone SON-T+400 Watt. 720 pine seeds were sown in pots that contained 0.5 litre unfertilized (but weakly […] five seeds per pot. The pots were plastic pots that included typically four small holes in the bottom of the pot. […] Fertilizer was administered on Monday and Tuesday of each week and the seeds, and later the seedlings or shoots, were watered each Sunday. The nutrient mixture and the water were both brought a pH of 5.0 with hydrochloric acid. Both the nutrient mixture and the water were administered manually to each pot with the aid of so-called bird pipette having a capacity of one decilitre. […] Eight different nutrient mixtures were tested and the nitrogen for each nutrient mixture was charged in three different concentrations, namely concentrations of one millimole per litre (1 mM), three millimole per litre (3 mM) and ten millimole per litre (10 mM). Six pots, and therewith thirty plants, were used for each nutrient mixture and each concentration, giving a total of 144 pots. […] Further dilution was required to obtain respective concentrations of three millimole and one millimole. The remaining seven nutrient mixtures were obtained, by preparing a stock solution that coincides totally with the before described commercial product but with the exception that the nitrogen source in the form of 61.5% nitrogen in nitrate form and 38.5% nitrogen in ammonium form was excluded. […] Each nutrient mixture based on the latter two nitrogen sources were prepared and have been given the designation +(plus) in the following. The addition is that the stock solution has been charged with twice the conventional amount of both potassium and magnesium. As those skilled in this art will realise, this has been done because a significant increase in the amount of ammonium nitrogen at the cost of the amount of nitrate nitrogen may result in a potassium and magnesium deficiency from the nutrient aspect. It will be noted that with regard to the inventive fertilizer, i.e. the basic protein amino acid arginine that contains four nitrogen atoms, the concentration has been calculated on the basis of one nitrogen atom, which means that the actual addition of the acid calculated in grams per litre is comparatively low or very low. At the end of the cultivation trials, the thirty pine plans in each trial series were taken up and their dry weight determined in grams. […] The sign I stand for the standard error defined as the standard deviation (which is a well defined term to describe the spread between tests) divided by the square root of the number of samples, in this case thirty samples.

[1] = for Retention % (adsorption or retention of the chemicals in the peat): 0.2 millimole chemical per gram peat, 5 millimolar solution, one hour at room temperature, mean of three tests, HPLC of liquid phase; for amount of supplied chemical found in the liquid (water) phase: same test as the retention, liquid phase above the peat
Protocol: A given amount of peat of the same kind as that used in the cultivation trials and whose properties have been given above was dried in an oven at a temperature of 60° C. for 20 hours. […] Portions of this peat corresponding to 0.25 grams were inserted into nine test tubes. 5 ml water was delivered to each test tube, this water having been purified in filters from the company Millipore. The test tubes and their contents were then allowed to stand at room temperature for 20 hours, so that the peat would become wet through.
The aforesaid three chemicals, each in solid state, were weighed into three equal portions. Each portion was dissolved in 5 ml water that had been purified in the before described manner. The amount or weight of the substance was such as to obtain a substance concentration of 5 millimolar.
Each of the nine chemical solutions was delivered to a respective test tube that contained water-drenched peat. The amount of chemical added was 0.2 millimole per gram peat in all cases. Subsequent to supplying said liquid, each test tube was shaken by hand and thereafter allowed to stand at room temperature for one hour. The materials in the test tubes layered, such that the lowermost third contained a substantially clear liquid phase and the remainder of the tube contained liquid-drenched peat. A pipette was inserted into the test tube down to approximately midway of the liquid phase. About 1.5 millilitres of liquid was drawn off through the pipette and analysed with respect to its chemical content with the aid of HPLC-chromatography (HPLC=High Performance Liquid Chromatography).
As evident from the foregoing, three similar tests were carried out for each chemical.

Retention % (adsorption or retention of the chemicals in the peat) ([1]; listed as glycine)	Structure (SMILES)	state of the spruce plants at the end of the trial (toxicity limit) (spruce plants; nitrogen charge of ten millimoles per litre)	change in growth of the pine plants on charge increase from three to ten millimoles per litre (pine plants)	growth of the pine plants at a charge of three millimoles per litre (pine plants; nitrogen 3 mM)	Retention % (adsorption or retention of the chemicals in the peat) [1] [%]	Retention % (adsorption or retention of the chemicals in the peat) ([1]; listed as ammonium) [%]	amount of supplied chemical found in the liquid (water) phase [1]	growth of the spruce plants with increased nitrogen charges (spruce plants; nitrogen 1 to 3 to 10 mM)	growth of the pine plants (mean dry weight), ranking of the nitrogen sources (pine plants)	growth of the pine plants with increase in the nitrogen addition (pine plants; nitrogen 1 to 3 to 10 mM)	Retention % (adsorption or retention of the chemicals in the peat) ([1]; listed as arginine) [%]
	Cl.N [Ammonium (NH4^+), ammonium chloride]	dead at the end of the trial	catastrophic reduction in growth	sufficiently good growth	28.0	28	more than 70%				
	N=C(N)NCCC[C@H](N)C(=O)O [Arginine, arginine]				89.1		~11%	constantly increased growth	best growth	increased constantly with an increase in the nitrogen addition	~90
less than zero	NCC(=O)O [Glycine, glycine]		slight decrease in growth or at least not an increased growth		−1.9				these three preparations are followed by the nutrient mixture that includes glycine		
